Assay results as given in PMC8760635 (Analytical chemistry, 2021).
Like-named read-outs stand apart in the source and are kept apart here.

Target: recombinant His6-tagged human FABP5 (Homo sapiens, UniProt Q01469)
Assay: Isothermal titration calorimetry
Assay type: binding

Sequence of recombinant His6-tagged human FABP5 (Q01469 whole entry): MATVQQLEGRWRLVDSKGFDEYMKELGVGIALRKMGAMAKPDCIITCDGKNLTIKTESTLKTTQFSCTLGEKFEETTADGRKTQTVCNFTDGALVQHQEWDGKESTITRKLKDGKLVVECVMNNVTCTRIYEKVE

| SMILES | Kd (read-out: dissociation constant (Kd), ITC, 25 °C, 100 mM NaCl, 30 mM Tris (pH 7.5), 5% glycerol, one-binding-site model, ± error of the fit) | Kd |
| --- | --- | --- |
| O=P(O)(O)C(F)(F)C(F)(F)C(F)(F)C(F)(F)C(F)(F)C(F)(F)C(F)(F)C(F)(F)F [PFOPA, perfluorooctanephosphonic acid] | 167 ± 34 µM |  |
| O=C(O)C(F)(F)C(F)(F)C(F)(F)C(F)(F)C(F)(F)C(F)(F)C(F)(F)F [PFOA, perfluorooctanoic acid] |  | 77 ± 17 µM |
